Values of other authors as cited in article PMC5572576 (The Lancet. Oncology, 2017).
Read-outs that look alike come from different tables or passages of the source.

Key:
[1] = tested on: patients with R/R AML; details: cited from earlier work
[2] = tested on: patients with R/R AML; details: cited from earlier work; remark: listed apart in the source
[3] = tested on: patients with newly diagnosed AML aged <60 years; details: added to intensive chemotherapy; cited from earlier work

CO[C@@H]1[C@H](N(C)C(=O)c2ccccc2)C[C@H]2O[C@]1(C)n1c3ccccc3c3c4c(c5c6ccccc6n2c5c31)C(=O)NC4 [midostaurin]
CR [1]: CR was not achieved
Patients with a reduction in blast counts ([1]; patients with FLT3WT): 42%
Patients with a reduction in blast counts ([1]; patients with FLT3 mutations): 71%

CC(C)(C)c1cc(NC(=O)Nc2ccc(-c3cn4c(n3)sc3cc(OCCN5CCOCC5)ccc34)cc2)no1 [quizartinib]
Median OS ([2]; FLT3-ITD subgroup): 18 weeks
Median OS ([2]; entire study population): 14 weeks

CNC(=O)c1cc(Oc2ccc(NC(=O)Nc3ccc(Cl)c(C(F)(F)F)c3)cc2)ccn1 [sorafenib]
3-year event-free survival (EFS) rate [3]: 40%
